Assay results: BindingDB's records for doi:10.1021/jm900194w (The Hong Kong Polytechnic University, 2009)

Test: Reversal of MRP1-mediated doxorubicin-resistance in human HeLa-T5 cells assessed as reduction of doxorubicin IC50 percent by half

- EC50: 93 nM
Structure (SMILES): Cc1onc2c1c(=O)n([C@H]1CCC[C@@H](CNC(=O)c3ccccc3)C1)c1cccc(Cl)c21 (racemic) [N-(((1R,3S)-3-(9-chloro-3-methyl-4-oxoisoxazolo[4,3-c]quinolin-5(4H)-yl)cyclohexyl)methyl)benzamide]
